Like-named read-outs stand apart in the source and are kept apart here.
How the values were obtained:
HT-29 colon xenografts = assay: Cure rate / antitumor activity in nude mice bearing HT-29 colon xenografts; format: in vivo; settings: for HT-29 CR (%) / HT-29 PR (%): drug 100 mg/kg/week i.v. × 4, MSC 0.2 mg/day/mouse p.o. 42 days started 21 days before drug; for % CR of Surviving Animals HT-29: without or with MSC 0.2 mg/mouse/d
[1] = tested on: A253 squamous cell carcinoma of the head and neck xenografts; assay: Cure rate / antitumor activity in nude mice bearing A253 head and neck xenografts; format: in vivo
Method: (§1) 5-Methylselenocysteine (MSC). Two schedules were evaluated: 1) in combination with irinotecan, MSC (0.2 mg/mouse/d×28) was administered orally for 28 days with the first dose administered daily for seven days prior to the weekly drug administration and 2) in combination with other drugs, MSC was administered orally (0.2 mg/mouse/d×14) daily for 14 days with the first dose administered daily for seven days prior to the single i.v. administration of taxol, CDDP, Dox, taxotere and cyclophosphamide.
(§2) Anticancer drug administration. The anticancer drugs administration schedule was as follows. • i. Irinotecan (CPT-11), weekly i.v. push for four (4) weeks, • ii. Taxol, single i.v. push, • iii. Cisplatin (CDDP), single i.v. push. • iv. Doxorubin (Dox), single i.v. push. • v. Cyclophosphamide, single i.v. push. • vi. Oxaliplatin, single i.v. push • vii. Taxotere, single i.v. push
(§3) Tumor Xenografts. […] The following tumor xenografts were established. • i. HCT-8: poorly-differentiated colon carcinoma, expressing wild type p53 • ii. HT-29: well-differentiated colon carcinoma expressing mutant p53 • iii. A253: well-differentiated squamous cell carcinoma of the head and neck (SCCHN) expressing no p53 • iv. FaDu: poorly-differentiated squamous cell carcinoma of the head and neck (SCCHN) expressing mutant p53
This example describes the comparative antitumor activity of MSC and SLM in combination with the maximum tolerated dose of irinotecan. […] As an illustration, MSC and SLM were used in combination with irinotecan. The results, shown in FIG. 3, represent a comparative evaluation of the effect of MSC and SLM (0.2 mg/mouse/d×28) on the antitumor activity of irinotecan (100 mg/kg/wk×4).
To determine whether therapeutic synergy achieved with irinotecan in xenografts is specific for MSC, the antitumor activity of irinotecan with and without two selenium-containing compounds, MSC and SLM were compared in xenografts bearing A253 (SCCHN) tumors for the […] (200 mg/kg/wk×4). The data compare the antitumor activity of MSC with SLM in combination with irinotecan (200 mg/kg/wk×4).
(§4) This example describes the modulation of the antitumor activity of anticancer drugs by MSC in mice bearing human tumors. […] To determine whether modulation of the therapeutic efficacy and cure of irinotecan by MSC is drug specific, the antitumor activity of drugs, representing different classes and mechanisms of action were evaluated alone and in combination with non-toxic doses and schedules of MSC (0.2 mg/mouse/d×14) in xenografts bearing human A253 and FaDu (SCCHN) tumors (FIG. 5). The data in FIG. 5 represent the use of the MTD doses of cisplatin (8 mg/kg×1), cyclophosphamide (100 mg/kg×1), taxol (35 mg/kg ×1.) and doxorubicin (10 mg/kg×1).

[2] = tested on: FaDu squamous cell carcinoma of the head and neck xenografts; assay: Cure rate / antitumor activity in nude mice bearing FaDu head and neck xenografts; format: in vivo; settings: for % CR of Surviving Animals FaDu: without or with MSC 0.2 mg/mouse/d
Method: as §1, §2
Tumor Xenografts. […] The following tumor xenografts were established. • i. HCT-8: poorly-differentiated colon carcinoma, expressing wild type p53 • ii. HT-29: well-differentiated colon carcinoma expressing mutant p53 • iii. A253: well-differentiated squamous cell carcinoma of the head and neck (SCCHN) expressing no p53 • iv. FaDu: poorly-differentiated squamous cell carcinoma of the head and neck (SCCHN) expressing mutant p53 […]
as §4
In mice, MSC was orally administered at 0.2 mg/mouse/d with the first daily dose administered seven days prior to single i.v. administration of drug and continuous for additional seven days for a total MSC treatment of 14 days.

HCT-8 colon xenografts = assay: Cure rate / antitumor activity in nude mice bearing HCT-8 colon xenografts; format: in vivo; settings: for HCT-8 CR (%) / HCT-8 PR (%): drug 100 mg/kg/week i.v. × 4, MSC 0.2 mg/day/mouse p.o. 42 days started 21 days before drug; for % CR of Surviving Animals HCT-8: without or with MSC 0.2 mg/mouse/d
Method: as §1, §2, §3
This example describes the evaluation of the effect of selenium containing compounds on the antitumor activity of irinotecan. […] Irinotecan was administered at 100 mg/kg/wk for 4 weeks (MTD) and 200 mg/kg/wk for 4 weeks (toxic) alone and in combination with 0.2 mg/mouse/d of MSC for 28 days to nude mice bearing HCT-8 colon xenografts.
For these experiments, FUra was administered by i.v. push weekly times 4 and MSC by p.o. once a day for 6 weeks, the first dose being given 3 weeks before FUra administration. Irinotecan was administered by i.v. 100 mg/kg/week once a week for 4 weeks and MSC (0.2 mg/day), by p.o. daily for 28 days with the first dose started 7 days prior to irinotecan treatment.

nude mice = assay: Irinotecan lethality / survival with and without selenium compound; format: in vivo; settings: for Survivor (%): without or with MSC 0.2 mg/mouse/d × 28 p.o.
Method: This example describes the evaluation of the effect of selenium containing compounds on the antitumor activity of irinotecan. […] Irinotecan was administered at 100 mg/kg/wk for 4 weeks (MTD) and 200 mg/kg/wk for 4 weeks (toxic) alone and in combination with 0.2 mg/mouse/d of MSC for 28 days to nude mice bearing HCT-8 colon xenografts. […] Thus, MSC potentiates the efficacy of irinotecan by increasing cure rate and by decreasing toxicity.
Nude mice (5 mice/group; experiment repeated ≧3 times) were treated with 0.2 mg/mouse/day of SLM (data replicated with MSC) for 21, 7, 3, 1, or 0 days prior to initiation of weekly IV irinotecan at 2 ×the MTD (at 200mg/kg/week×4). […] 3 days pre-treatment was associated with 80% survivorship while 0-1 days were associated with 60% (45% survivorship for irinotecan alone) (FIG. 13). Thus, the optimal duration of pre-treatment with SLM 0.2mg/mouse/day for maximum protection against irinotecan lethality was identified to be at least 1 week.

in vivo [3] = settings: nude, mouse
Rats = settings: oxaliplatin 10 mg/kg single i.v.; alone or with MSC […]
Method: In this example, the effect of selenium on the antitumor activity of oxaliplatin and doxorubicin was tested as follows. The effect of selenium was determined on the antitumor activity of oxaliplatin in rats bearing advanced ward colorectal carcinoma (3000 mg). Rats received MSC (0.75 mg/rat/d) or saline fourteen days prior to single i.v. injection of oxaliplatin of 5 and 10 mg/kg with continuous daily oral administration of MSC for additional seven days for a total of 21 days of MSC and oxaliplatin is administered on day 14 after saline and MSC treatment.

rat = assay: Reduction of doxorubicin toxicity by selenium compounds in rats; format: in vivo; settings: 0.5 mg/day/rat daily for 14 days, started 7 days prior to doxorubicin; data not shown
normal nude mice = assay: Toxicity of selenium compounds alone in normal nude mice; format: in vivo; settings: 0.2 mg/mouse/day for 28 days orally
Method: However, it was observed that when cure rates were evaluated, selenium increased the efficacy of only irinotecan and taxotere. While not intending to be bound by any particular theory, it is considered that potentiation of the efficacy of anticancer drugs is associated with increased antitumor activity and decreased toxicity.

in vivo [4] = settings: rat
[5] = Table 3 (A253), drug dose mg/kg and MSC mg/mouse/day in parentheses of Treatment
[6] = Table 3 first column pair (head printed 'FaUra'), drug dose mg/kg and MSC mg/mouse/day in parentheses of Treatment, schedules per footnote
[7] = Table 3 first column pair (head printed 'FaUra'), drug dose mg/kg and MSC mg/mouse/day in parentheses of Treatment

O=c1[nH]cc(F)c(=O)[nH]1 [FUra]
HT-29 CR (%) (HT-29 colon xenografts): 0%
HT-29 PR (%) (HT-29 colon xenografts): 0%
CR (%) (complete tumor regression) [1, 5]: 0%
PR (%) (partial tumor regression, >50% tumor reduction) [1, 5]: 0%
CR (%) (complete tumor regression) [2, 6]: 0%
HCT-8 CR (%) (HCT-8 colon xenografts): 0%
HCT-8 PR (%) (HCT-8 colon xenografts): 0%

CCc1c2c(nc3ccc(OC(=O)N4CCC(N5CCCCC5)CC4)cc13)-c1cc3c(c(=O)n1C2)COC(=O)[C@]3(O)CC [Irinotecan, irinotecan]
Survivor (%) (nude mice; irinotecan 100 mg/kg/wk × 4 i.v.): 100%
survivorship (nude mice; irinotecan 200 mg/kg/week × 4 alone (Example 8)): 45%
Survivor (%) (nude mice; irinotecan 200 mg/kg/wk × 4 i.v.): 50%
lethality (nude mice; irinotecan 300 mg/kg/wk × 4, alone or with MSC): 100%
Survivor (%) (nude mice; irinotecan 300 mg/kg/wk × 4 i.v.): 0%
HT-29 CR (%) (HT-29 colon xenografts): 0%
HT-29 PR (%) (HT-29 colon xenografts): 0%
% CR of Surviving Animals HT-29 (HT-29 colon xenografts; irinotecan 100 mg/kg/wk × 4): 0%
% CR of Surviving Animals HT-29 (HT-29 colon xenografts; irinotecan 200 mg/kg/wk × 4): 10%
maximum tolerated weekly dose (Mice; weekly i.v. for 4 weeks, nude mice): 100 mg/kg/wk
CR (%) (complete tumor regression) [1, 5]: 10%
PR (%) (partial tumor regression, >50% tumor reduction) [1, 5]: 30%
% CR of Surviving Animals A253 ([1]; irinotecan 100 mg/kg/wk × 4, without or with MSC 0.2 mg/mouse/d): 20%
% CR of Surviving Animals A253 ([1]; irinotecan 200 mg/kg/wk × 4, without or with MSC or SLM 0.2 mg/mouse/d): 40%
PR (%) (partial tumor regression, >50% tumor reduction) [2, 7]: 50%
CR (%) (complete tumor regression) [2, 6]: 30%
% CR of Surviving Animals FaDu ([2]; irinotecan 100 mg/kg/wk × 4): 30%
% CR of Surviving Animals FaDu ([2]; irinotecan 200 mg/kg/wk × 4): 50%
HCT-8 CR (%) (HCT-8 colon xenografts): 20%
HCT-8 PR (%) (HCT-8 colon xenografts): 20%
% CR of Surviving Animals HCT-8 (HCT-8 colon xenografts; irinotecan 100 mg/kg/wk × 4): 20%
% CR of Surviving Animals HCT-8 (HCT-8 colon xenografts; irinotecan 200 mg/kg/wk × 4): 30%

O=P1(N(CCCl)CCCl)NCCCO1 (centres unmarked) [Cyclophosphamide, cyclophosphamide]
CR (%) (complete tumor regression) ([1]; mouse, in vivo): 0%
PR (%) (partial tumor regression, >50% tumor reduction) ([1]; mouse, in vivo): 0%
MTD (in vivo [3]): 100 mg/kg
CR (%) (complete tumor regression) ([2]; mouse, in vivo): 0%
PR (%) (partial tumor regression, >50% tumor reduction) ([2]; mouse, in vivo): 0%

O=C1[O][Pt]2([NH][C@@H]3CCCC[C@H]3[NH]2)[O]C1=O [Oxaliplatin, oxaliplatin]
toxicity (weight loss and diarrhea) (Rats): toxic
MTD (mg/kg) Mice (Mice; drug alone (−) or with MSC (+)): 7.5 mg/kg
CR (%) (complete tumor regression) ([1]; mouse, in vivo): 0%
PR (%) (partial tumor regression, >50% tumor reduction) ([1]; mouse, in vivo): 0%
CR (%) (complete tumor regression) ([2]; mouse, in vivo): 0%
PR (%) (partial tumor regression, >50% tumor reduction) ([2]; mouse, in vivo): 0%

CC[C@@]1(O)C(=O)OCc2c1cc1n(c2=O)Cc2cc3c(CN(C)C)c(O)ccc3nc2-1 [Topotecan, topotecan]
CR (%) (complete tumor regression) [1, 5]: 0%
PR (%) (partial tumor regression, >50% tumor reduction) [1, 5]: 0%
PR (%) (partial tumor regression, >50% tumor reduction) [2, 7]: 0%
CR (%) (complete tumor regression) [2, 6]: 0%

C[Se]C[C@H](N)C(=O)O [MSC, 5-methylselenocysteine]
lowest effective dose in attenuating irinotecan toxicity (nude mice; nude mice, p.o. daily): 0.01 mg/day
reducing toxicity of doxorubicin (rat): effective in reducing toxicity
toxicity of selenium compound alone (normal nude mice): not to be toxic

O=[Se](O)O [sodium selenite]
reducing toxicity of doxorubicin (rat): not sodium selenite

CC(=O)O[C@H]1C(=O)[C@@]2(C)[C@H]([C@H](OC(=O)c3ccccc3)[C@]3(O)C[C@H](OC(=O)[C@H](O)[C@@H](NC(=O)c4ccccc4)c4ccccc4)C(C)=C1C3(C)C)[C@]1(OC(C)=O)CO[C@@H]1C[C@@H]2O [Taxol]
CR (%) (complete tumor regression) [1, 5]: 0%
PR (%) (partial tumor regression, >50% tumor reduction) [1, 5]: 0%
MTD (in vivo [3]): 35 mg/kg
PR (%) (partial tumor regression, >50% tumor reduction) [2, 7]: 0%
CR (%) (complete tumor regression) [2, 6]: 0%
MTD (in vivo [4]): 50 mg/kg

CCCCCOC(=O)Nc1nc(=O)n([C@@H]2O[C@H](C)[C@@H](O)[C@H]2O)cc1F [Xeloda]
CR (%) (complete tumor regression) [1, 5]: 0%
PR (%) (partial tumor regression, >50% tumor reduction) [1, 5]: 0%
CR (%) (complete tumor regression) [2, 6]: 0%

N.N.[Cl][Pt][Cl] [Cisplatin, cisplatin]
MTD (mg/kg) Mice (Mice; drug alone (−) or with MSC (+)): 8 mg/kg
CR (%) (complete tumor regression) [1, 5]: 0%
PR (%) (partial tumor regression, >50% tumor reduction) [1, 5]: 0%
PR (%) (partial tumor regression, >50% tumor reduction) [2, 7]: 0%
CR (%) (complete tumor regression) [2, 6]: 0%

COc1cccc2c1C(=O)c1c(O)c3c(c(O)c1C2=O)C[C@@](O)(C(=O)CO)C[C@@H]3O[C@H]1C[C@H](N)[C@H](O)[C@H](C)O1 [Doxorubicin, doxorubicin]
MTD (mg/kg) Mice (Mice; nude, mouse, in vivo): 10 mg/kg
CR (%) (complete tumor regression) [1, 5]: 0%
PR (%) (partial tumor regression, >50% tumor reduction) [1, 5]: 60%
PR (%) (partial tumor regression, >50% tumor reduction) [2, 7]: 0%
CR (%) (complete tumor regression) [2, 6]: 0%
MTD (in vivo [4]): 6 mg/kg

Reference: patent publication US20060258697A1, “Method of augmenting the antitumor activity of anticancer agents” (priority 2003, published 2006)
